Source: patent US7652014B2, “Substituted 6-cyclohexylalkyl substituted 2-quinolinones and 2-quinoxalinones as poly(ADP-ribose) polymerase inhibitors” (Janssen Pharmaceutica, priority 2003, dated 2010)

Key:
PARP-1 enzyme [1] = molecular target: T1, PARP-1 enzyme (Homo sapiens, UniProt P09874); assay: In vitro filtration assay for PARP-1 inhibitory activity; type: biochemical; details: nicked DNA activated PARP-1, [32P]-NAD, histones; read-out: In vitro filtration assay pIC50 (converted)
T1 construct: made in house
T1 sequence (P09874 whole entry): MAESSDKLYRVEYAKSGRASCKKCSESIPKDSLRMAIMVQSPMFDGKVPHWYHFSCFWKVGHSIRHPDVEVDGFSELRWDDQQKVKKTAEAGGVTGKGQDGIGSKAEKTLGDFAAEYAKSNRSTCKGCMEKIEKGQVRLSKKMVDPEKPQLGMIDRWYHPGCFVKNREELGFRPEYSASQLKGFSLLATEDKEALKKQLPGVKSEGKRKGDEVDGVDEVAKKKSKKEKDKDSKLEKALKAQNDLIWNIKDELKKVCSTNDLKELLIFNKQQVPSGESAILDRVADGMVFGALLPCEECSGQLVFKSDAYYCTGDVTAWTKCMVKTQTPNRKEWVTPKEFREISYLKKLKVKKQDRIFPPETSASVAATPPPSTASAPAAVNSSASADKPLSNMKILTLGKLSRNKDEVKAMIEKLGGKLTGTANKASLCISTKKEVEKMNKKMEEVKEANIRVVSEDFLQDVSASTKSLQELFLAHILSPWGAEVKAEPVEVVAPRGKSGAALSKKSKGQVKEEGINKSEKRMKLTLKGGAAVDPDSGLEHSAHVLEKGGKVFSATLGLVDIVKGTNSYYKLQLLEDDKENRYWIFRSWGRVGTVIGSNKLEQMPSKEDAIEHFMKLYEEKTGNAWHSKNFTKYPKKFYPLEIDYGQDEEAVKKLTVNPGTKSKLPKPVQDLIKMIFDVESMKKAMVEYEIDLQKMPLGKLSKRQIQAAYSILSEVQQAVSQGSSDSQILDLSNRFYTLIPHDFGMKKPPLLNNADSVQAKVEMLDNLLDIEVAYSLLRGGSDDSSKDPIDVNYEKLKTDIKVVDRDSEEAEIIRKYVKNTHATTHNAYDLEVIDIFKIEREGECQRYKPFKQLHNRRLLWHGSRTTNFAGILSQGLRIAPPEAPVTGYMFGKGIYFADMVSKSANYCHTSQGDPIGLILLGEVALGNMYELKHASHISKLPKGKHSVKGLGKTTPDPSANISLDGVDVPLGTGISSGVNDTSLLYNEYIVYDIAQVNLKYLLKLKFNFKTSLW
Method: In Vitro Filtration Assay for PARP-1 Inhibitory Activity
Compounds of the present invention were tested in an in vitro filtration assay assessing PARP-1 activity (triggered in the presence of nicked DNA) by means of its histone poly (ADP-ribosyl)ation activity using [^32P]-NAD as ADP-ribosyl donor. The radioactive ribosylated histones were precipitated by trichloroacetic acid (TCA) in 96-well filterplates and the incorporated [^32P] measured using a scintillation counter A mixture of histones (stock solution: 5 mg/ml in H2O), NAD^+ (stock solution: 100 mM in H2O), and [^32P]-NAD^+ in incubation buffer (50 mM Tris/HCl, pH 8; 0.2 mM DTT; 4 mM MgCl2) was made. A mixture of the PARP-1 enzyme (5-10 μg/ml) and nicked DNA was also made. The nicked DNA was prepared as described in the in vitro SPA for PARP-1 inhibitory activity. Seventy-five μl of the PARP-1 enzyme/DNA mixture together with 1 μl of compound in DMSO and 25 μl of histones-NAD^+/[^32P]-NAD^+ mixture was added per well of a 96-well filterplate (0.45 μm, supplier Millipore). The final concentrations in the incubation mixture were 2 μg/ml for the histones, 0.1 mM for the NAD^+, 200 μM (0.5 μC) for the [^32P]-NAD^+ and 2 μg/ml for the nicked DNA. Plates were incubated for 15 min. at room temperature and the reaction was terminated by the addition of 10 μl ice cold 100% TCA followed by the addition of 10 μl ice-cold BSA solution (1% in H2O). The protein fraction was allowed to precipitate for 10 min. at 4° C. and plates were vacuum filtered. The plates were subsequently washed with, for each well, 1 ml of 10% ice cold TCA, 1 ml of 5% ice cold TCA and 1 ml of 5% TCA at room temperature. Finally 100 μl of scintillation solution (Microscint 40, Packard) was added to each well and the plates were transferred to a TopCountNXT™ (supplier: Packard) for scintillation counting and values were expressed as counts per minute (cpm). For each experiment, controls (containing PARP-1 enzyme and DMSO without compound), a blank incubation (containing DMSO but no PARP-1 enzyme or compound) and samples (containing PARP-1 enzyme and compound dissolved in DMSO) were run in parallel. All compounds tested were dissolved and eventually further diluted in DMSO. In first instance, compounds were tested at a concentration of 10^−5M. […] In each test, the blank value was subtracted from both the control and the sample values. The control sample represented maximal PARP-1 enzyme activity. For each sample, the amount of cpm was expressed as a percentage of the mean cpm value of the controls. When appropriate, IC50-values (concentration of the drug, needed to reduce the PARP-1 enzyme activity to 50% of the control) were computed using linear interpolation between the experimental points just above and below the 50% level. Herein the effects of test compounds are expressed as pIC50 (the negative log value of the IC50-value). As a reference compound, 4-amino-1,8-naphthalimide was included to validate the filtration assay.

PARP-1 enzyme [2] = molecular target: T1, PARP-1 enzyme; assay: In vitro Scintillation Proximity Assay (SPA) for PARP-1 inhibitory activity; type: biochemical; details: nicked DNA activated PARP-1, [3H]-NAD+, biotinylated histones; read-out: In vitro SPA pIC50 (converted)
Method: Pharmacological Example In Vitro Scintillation Proximity Assay (SPA) for PARP-1 Inhibitory Activity
Compounds of the present invention were tested in an in vitro assay based on SPA technology (proprietary to Amersham Pharmacia Biotech).
In principle, the assay relies upon the well established SPA technology for the detection of poly(ADP-ribosyl)ation of biotinylated target proteins, i.e histones. This ribosylation is induced using nicked DNA activated PARP-1 enzyme and [^3H]-nicotinamide adenine dinucleotide ([^3H]-NAD^+) as ADP-ribosyl donor.
As inducer of PARP-1 enzyme activity, nicked DNA was prepared. For this, 25 mg of DNA (supplier: Sigma) was dissolved in 25 ml DNAse buffer (10 mM Tris-HCl, pH 7.4; 0.5 mg/ml Bovine Serum Albumine (BSA); 5 mM MgCl2.6H2O and 1 mM KCl) to which 50 μl DNAse solution (1 mg/ml in 0.15 M NaCl) was added. After an incubation of 90 min. at 37° C., the reaction was terminated by adding 1.45 g NaCl, followed by a further incubation at 58° C. for 15 min. The reaction mixture was cooled on ice and dialysed at 4° C. for respectively 1.5 and 2 hours against 1.5 l of 0.2 M KCl, and twice against 1.5 l of 0.01 M KCl for 1.5 and 2 h respectively. The mixture was aliquoted and stored at −20° C. Histones (1 mg/ml, type II-A, supplier: Sigma) were biotinylated using the biotinylation kit of Amersham and stored aliquoted at −20° C. A stock solution of 100 mg/ml SPA poly(vinyl toluene) (PVT) beads (supplier: Amersham) was made in PBS. A stock solution of [^3H]-NAD^+ was made by adding 120 μl of [^3H]-NAD^+ (0.1 mCi/ml, supplier: NEN) to 6 ml incubation buffer (50 mM Tris/HCl, pH 8; 0.2 mM DTT; 4 mM MgCl2). A solution of 4 mM NAD^+ (supplier: Roche) was made in incubation buffer (from a 100 mM stock solution in water stored at −20° C.). The PARP-1 enzyme was produced using art known techniques, i.e. cloning and expression of the protein starting from human liver cDNA. Information concerning the used protein sequence of the PARP-1 enzyme including literature references can be found in the Swiss-Prot database under primary accession number P09874. Biotinylated histones and PVT-SPA beads were mixed and pre-incubated for 30 min. at room temperature. PARP-1 enzyme (concentration was lot dependent) was mixed with the nicked DNA and the mixture was pre-incubated for 30 min. at 4° C. Equal parts of this histones/PVT-SPA beads solution and PARP-1 enzyme/DNA solution were mixed and 75 μl of this mixture together with 1 μl of compound in DMSO and 25 μl of [^3H]-NAD^+ was added per well into a 96-well microtiterplate. The final concentrations in the incubation mixture were 2 μg/ml for the biotinylated histones, 2 mg/ml for the PVT-SPA beads, 2 μg/ml for the nicked DNA and between 5-10 μg/ml for the PARP-1 enzyme. After incubation of the mixture for 15 min. at room temperature, the reaction was terminated by adding 100 μl of 4 mM NAD^+ in incubation buffer (final concentration 2 mM) and plates were mixed.
The beads were allowed to sediment for at least 15 min. and plates transferred to a TopCountNXT™ (Packard) for scintillation counting, values were expressed as counts per minute (cpm). For each experiment, controls (containing PARP-1 enzyme and DMSO without compound), a blank incubation (containing DMSO but no PARP-1 enzyme or compound) and samples (containing PARP-1 enzyme and compound dissolved in DMSO) were run in parallel. All compounds tested were dissolved and eventually further diluted in DMSO. […] In each test, the blank value was subtracted from both the control and the sample values. The control sample represented maximal PARP-1 enzyme activity. For each sample, the amount of cpm was expressed as a percentage of the mean cpm value of the controls. When appropriate, IC50-values (concentration of the drug, needed to reduce the PARP-1 enzyme activity to 50% of the control) were computed using linear interpolation between the experimental points just above and below the 50% level. […]

Compound | melting point [°C] | IC50 (PARP-1 enzyme [1]) [nM] | IC50 (PARP-1 enzyme [2]) [nM]
CCc1cc2cc(C(O)CN3CCCCC3)ccc2[nH]c1=O (stereo not drawn) [Co. No. 1] | 172 | 349 | 329
CCc1cc2cc(C(C3CCCCCC3)N3CCC(=O)CC3)ccc2[nH]c1=O (stereo not drawn) [Co. No. 2] | 218 | 568 | 232
CCc1cc2cc(C(C3CCCCC3)N3CCC4(CC3)CO4)ccc2[nH]c1=O (stereo not drawn) [Co. No. 4] | 200 | 1520 | 300
CCc1cc2cc(CN3CCN(Cc4ccccc4)CC3)ccc2[nH]c1=O [Co. No. 7] | 194 | – | 94.6
CCc1cc2cc(C(OCCN(C)C)C3CCCCC3)ccc2[nH]c1=O (stereo not drawn) [Co. No. 10] | – | – | > 1000
CCc1cc2cc(C(c3cccs3)N3CCC(NCCOC)CC3)ccc2[nH]c1=O (stereo not drawn) [Co. No. 12] | – | 2270 | 188
CCc1cc2cc(C(CC(C)C)N3CCC(=O)CC3)ccc2[nH]c1=O (stereo not drawn) [Co. No. 16] | – | 1840 | 230
CCc1cc2cc(C(NCCOC)C3CCCCC3)ccc2[nH]c1=O (stereo not drawn) [Co. No. 18] | – | 2990 | 750
CCc1cc2cc(C(SCCN(C)C)C3CCCCC3)ccc2[nH]c1=O (stereo not drawn) [Co. No. 20] | – | 1840 | 600
CCc1cc2cc(C(c3ccsc3)N3CCC(=O)CC3)ccc2[nH]c1=O (stereo not drawn) [Co. No. 23] | – | 1260 | 232
CCc1nc2cc(C(C(C)C)N3CCC(c4n[nH]c5cc(F)ccc45)CC3)ccc2[nH]c1=O (stereo not drawn) [Co. No. 26] | – | – | 536
CCc1cc2cc(C(O)C3CCN(Cc4ccccc4)CC3)ccc2[nH]c1=O (stereo not drawn) [Co. No. 27] | – | 2200 | 180
CCc1cc2cc([C@@H](C3CCCCC3)N3CCN(CCOC)CC3)ccc2[nH]c1=O [Co. No. 30] | – | 9180 | 1280
CCc1cc2cc(C(C3CCCCC3)N3CCC(NCc4cccnc4)CC3)ccc2[nH]c1=O (stereo not drawn) [Co. No. 31] | – | 8260 | 863
CCc1cc2cc(C(c3ccsc3)N3CCC(NCCOC)CC3)ccc2[nH]c1=O (stereo not drawn) [Co. No. 32] | – | 2830 | 196
CCc1cc2cc(C(C3CCCCC3)N3CCC(O)CC3)ccc2[nH]c1=O (stereo not drawn) [Co. No. 34] | – | 2430 | 853

Now from value to molecule:

melting point [°C] | IC50 (PARP-1 enzyme [1]) [nM] | IC50 (PARP-1 enzyme [2]) [nM] | Compound
163 | – | 861 | CCOC(=O)C1CCN(C(C)Cc2ccc3[nH]c(=O)c(CC)nc3c2)CC1 (stereo not drawn) [Co. No. 3]
181 | 5060 | 507 | CCc1cc2cc(C(CCN3CCN(C)CC3)C3CCCCC3)ccc2[nH]c1=O (stereo not drawn) [Co. No. 5]
194 | 1350 | 508 | CCc1cc2cc(C(C3CCCCC3)N3CCC(O)(c4cncn4C)CC3)ccc2[nH]c1=O (stereo not drawn) [Co. No. 6]
122 | 6730 | 873 | CCc1cc2cc(C(OCCN(C)C)C3CCCCC3)ccc2[nH]c1=O (stereo not drawn) [Co. No. 8]
115 | 4380 | 614 | CCc1cc2cc([C@@H](OCCN(C)C)C3CCCCC3)ccc2[nH]c1=O [Co. No. 9]
196 | 785 | 184 | CCc1cc2cc(C(C3CC=CCC3)N3CCC(O)CC3)ccc2[nH]c1=O (stereo not drawn) [Co. No. 11]
– | 1840 | 388 | CCc1cc2cc(C(O)CN3CCN(C)CC3)ccc2[nH]c1=O (stereo not drawn) [Co. No. 14]
– | 2540 | 288 | CCc1cc2cc(C(O)CN3CCOCC3)ccc2[nH]c1=O (stereo not drawn) [Co. No. 15]
– | 2560 | 383 | CCc1cc2cc(C(C(CC)CC)N3CCC(=O)CC3)ccc2[nH]c1=O (stereo not drawn) [Co. No. 17]
– | – | 757 | CCc1nc2cc(C(C(C)C)N3CCC(=O)CC3)ccc2[nH]c1=O (stereo not drawn) [Co. No. 19]
– | – | 902 | CCc1cc2cc(C(C3CCCCC3)N3CCN(C)CC3)ccc2[nH]c1=O (stereo not drawn) [Co. No. 21]
– | 1180 | 198 | CCc1cc2cc(C(c3cccnc3)N3CCC(=O)CC3)ccc2[nH]c1=O (stereo not drawn) [Co. No. 22]
– | 1330 | 277 | CCc1cc2cc(C(C3CC=CCC3)N3CCC(=O)CC3)ccc2[nH]c1=O (stereo not drawn) [Co. No. 24]
– | 6010 | 1110 | CCc1cc2cc(C(NCCN(C)C)C3CCCCC3)ccc2[nH]c1=O (stereo not drawn) [Co. No. 25]
– | 3150 | 288 | CCc1cc2cc(C(O)C3CCCCC3)ccc2[nH]c1=O (stereo not drawn) [Co. No. 28]
– | 5420 | 841 | CCc1cc2cc([C@@H](NCCN(C)C)C3CCCCC3)ccc2[nH]c1=O [Co. No. 29]
– | 4210 | 832 | CCCCC(c1ccc2[nH]c(=O)c(CC)cc2c1)N1CCC(NCCOC)CC1 (stereo not drawn) [Co. No. 33]
– | 3400 | 640 | CCc1cc2cc(C(C3CCCCC3)N3CCC(N4CCOCC4)CC3)ccc2[nH]c1=O (stereo not drawn) [Co. No. 35]
– | 2610 | 568 | CCc1cc2cc(C(=O)CN3CCOCC3)ccc2[nH]c1=O [Co. No. 36]
– | – | 853 | CCc1cc2cc(CCN3CCC(NCCOC)CC3)ccc2[nH]c1=O [Co. No. 37]
